Our source for the IC50 values is patent US12662491B2 (Redona Therapeutics, Inc., priority 2020, dated 2026).

The target of the experiment is T1, Zcchc11 enzyme (Homo sapiens, UniProt Q5TAX3).
T1 construct: made in house; host or cells: HEK293 cells (Zcchc11); E. coli Rosetta II (LIN28A)
T1 sequence (Q5TAX3 212-1420): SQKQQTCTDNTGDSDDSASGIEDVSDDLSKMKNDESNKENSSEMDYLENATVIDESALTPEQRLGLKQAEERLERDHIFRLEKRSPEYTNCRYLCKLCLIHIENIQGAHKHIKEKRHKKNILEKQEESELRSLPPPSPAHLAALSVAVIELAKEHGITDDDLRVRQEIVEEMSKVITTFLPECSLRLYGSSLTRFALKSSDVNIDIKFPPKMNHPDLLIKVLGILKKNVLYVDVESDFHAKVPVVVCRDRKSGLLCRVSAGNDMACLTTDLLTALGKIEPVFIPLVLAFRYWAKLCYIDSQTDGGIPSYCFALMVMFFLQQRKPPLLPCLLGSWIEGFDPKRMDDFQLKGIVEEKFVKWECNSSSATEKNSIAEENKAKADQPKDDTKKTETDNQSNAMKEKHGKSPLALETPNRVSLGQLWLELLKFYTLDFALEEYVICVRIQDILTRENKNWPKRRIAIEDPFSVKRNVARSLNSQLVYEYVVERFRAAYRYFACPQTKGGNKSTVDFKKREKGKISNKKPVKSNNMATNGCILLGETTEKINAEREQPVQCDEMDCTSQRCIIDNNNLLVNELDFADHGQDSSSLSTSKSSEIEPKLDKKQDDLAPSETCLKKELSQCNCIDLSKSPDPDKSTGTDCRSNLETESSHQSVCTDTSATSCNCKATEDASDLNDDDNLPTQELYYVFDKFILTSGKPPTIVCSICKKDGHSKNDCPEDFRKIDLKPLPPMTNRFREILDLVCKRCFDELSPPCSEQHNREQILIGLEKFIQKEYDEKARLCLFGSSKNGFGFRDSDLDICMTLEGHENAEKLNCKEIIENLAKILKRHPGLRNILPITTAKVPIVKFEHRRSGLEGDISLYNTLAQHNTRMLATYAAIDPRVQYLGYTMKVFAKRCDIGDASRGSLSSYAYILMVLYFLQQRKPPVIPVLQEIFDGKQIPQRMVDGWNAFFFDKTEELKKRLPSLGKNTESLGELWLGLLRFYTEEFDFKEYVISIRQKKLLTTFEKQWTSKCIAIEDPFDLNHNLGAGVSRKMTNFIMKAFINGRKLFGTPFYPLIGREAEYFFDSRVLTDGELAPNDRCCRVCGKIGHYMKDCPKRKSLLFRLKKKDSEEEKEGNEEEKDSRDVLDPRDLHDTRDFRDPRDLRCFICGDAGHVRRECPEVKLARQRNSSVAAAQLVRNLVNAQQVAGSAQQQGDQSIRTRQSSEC
The experiment in a line: TUTase assay (Zcchc11 assay, Lin28a-dependent polyuridylation of pre-let-7). The experiment is classed as biochemical. The conditions noted are these: Lin28a-dependent Zcchc11 (Z11) TUTase assay; read-out: Potency Lin28a-dep Z11 IC50. A digest of the protocol:
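HEK293-expressed human Zcchc11 (residues 212-1420, 0.2 nM) with 10 nM LIN28A and 2 nM 5′-fluorescein pre-let-7, preincubated 30 min at room temperature, pH 7.3. Started with 5 uM UTP; poly(U) tails quenched by 3′-rhodamine A20 probe, read kinetically. IC50 from early-rate four-parameter fit; no-UTP wells define 0%.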

pIC50: −log10 of the molar value.

The term pIC50 denotes −log10 of the IC50, conventionally taken in molar units. Turning to `O=C(O)c1cn(-c2cncnc2)c2cc(N3CCC[C@@H]3COc3ncccc3Cl)c(Cl)cc2c1=O` [Example 497], the pIC50 is not below 6.00.
With `O=C(O)c1cn(-c2cccnn2)c2cc(N3CCC[C@@H]3COc3ncccc3Cl)c(Cl)cc2c1=O` [Example 498, (R)-6-chloro-7-(2-(((3-chloropyridin-2-yl)oxy)methyl)pyrrolidin-1-yl)-4-oxo-1-(pyridazin-3-yl)-1,4-dihydroquinoline-3-carboxylic acid] the figure was not below 6.00; with `O=C(O)c1cn(-c2ccccn2)c2cc(N3CCC[C@@H]3COc3ncccc3Cl)c(Cl)cc2c1=O` [Example 499, (R)-6-chloro-7-(2-(((3-chloropyridin-2-yl)oxy)methyl)pyrrolidin-1-yl)-4-oxo-1-(pyridin-2-yl)-1,4-dihydroquinoline-3-carboxylic acid], not below 6.00; with `O=C(O)c1cn(-c2ncccn2)c2cc(N3CCC[C@@H]3COc3ncccc3Cl)c(Cl)cc2c1=O` [Example 500, (R)-6-chloro-7-(2-(((3-chloropyridin-2-yl)oxy)methyl)pyrrolidin-1-yl)-4-oxo-1-(pyrimidin-2-yl)-1,4-dihydroquinoline-3-carboxylic acid], not below 6.00.
With `Cn1ccnc1OC[C@H]1CCCN1c1cc2c(cc1Cl)c(=O)c(C(=O)O)cn2-c1ccc(N2CCC2)nc1` [Example 501, (R)-1-(6-(azetidin-1-yl)pyridin-3-yl)-6-chloro-7-(2-(((1-methyl-1H-imidazol-2-yl)oxy)methyl)pyrrolidin-1-yl)-4-oxo-1,4-dihydroquinoline-3-carboxylic acid] the figure was not below 6.00; with `CNCCN1CCC(n2cc(C(=O)O)c(=O)c3cc(Cl)c(N4CCC[C@@H]4COc4ncccc4Cl)cc32)CC1` [Example 502, (R)-6-chloro-7-(2-(((3-chloropyridin-2-yl)oxy)methyl)pyrrolidin-1-yl)-1-(1-(2-(methyl-amino)ethyl)piperidin-4-yl)-4-oxo-1,4-dihydroquinoline-3-carboxylic acid], 5.00 to 6.00.
The result for `O=C(O)c1cn(-c2cnc(OCc3ccccc3)cn2)c2cc(N3CCC[C@@H]3COc3ncccc3Cl)c(Cl)cc2c1=O` [Example 503, (R)-1-(5-(benzyloxy)pyrazin-2-yl)-6-chloro-7-(2-(((3-chloropyridin-2-yl)oxy)methyl)pyrrolidin-1-yl)-4-oxo-1,4-dihydroquinoline-3-carboxylic acid] reads 5.00 to 6.00.
Turning to `O=C(O)c1cn(-c2ccnnc2)c2cc(N3CCC[C@@H]3COc3ncccc3Cl)c(Cl)cc2c1=O` [Example 504, 6-chloro-7-[(2R)-2-{[(3-chloropyridin-2-yl)oxy]methyl}pyrrolidin-1-yl]-4-oxo-1-(pyridazin-4-yl)-1,4-dihydroquinoline-3-carboxylic acid], the pIC50 was not below 6.00.
With `O=C(O)c1cn(-c2cc3cc[nH]c3cc2F)c2cc(N3CCC[C@@H]3COc3ncccc3Cl)c(Cl)cc2c1=O` [Example 505, (R)-6-chloro-7-(2-(((3-chloropyridin-2-yl)oxy)methyl)pyrrolidin-1-yl)-1-(6-fluoro-1H-indol-5-yl)-4-oxo-1,4-dihydroquinoline-3-carboxylic acid] the figure was not below 6.00.
The result for `CNc1cnc(-n2cc(C(=O)O)c(=O)c3cc(Cl)c(N4CCC[C@@H]4COc4ncccc4Cl)cc32)cn1` [Example 506, (R)-6-chloro-7-(2-(((3-chloropyridin-2-yl)oxy)methyl)pyrrolidin-1-yl)-1-(5-(methylamino)pyrazin-2-yl)-4-oxo-1,4-dihydroquinoline-3-carboxylic acid] reads not below 6.00.
With `O=C(O)c1cn(-c2ccc(N3CC(N4CCC4)C3)nc2)c2cc(N3CCC[C@@H]3COc3ncccc3Cl)c(Cl)cc2c1=O` [Example 507, (R)-1-(6-([1,3′-biazetidin]-1′-yl)pyridin-3-yl)-6-chloro-7-(2-(((3-chloropyridin-2-yl)oxy)methyl)pyrrolidin-1-yl)-4-oxo-1,4-dihydroquinoline-3-carboxylic acid] the figure was not below 6.00.
In the case of `CN1CCn2nc(-n3cc(C(=O)O)c(=O)c4cc(Cl)c(N5CCC[C@@H]5COc5ncccc5Cl)cc43)cc2C1` [Example 508, (R)-6-chloro-7-(2-(((3-chloropyridin-2-yl)oxy)methyl)pyrrolidin-1-yl)-1-(5-methyl-4,5,6,7-tetrahydropyrazolo [1,5-a]pyrazin-2-yl)-4-oxo-1,4-dihydroquinoline-3-carboxylic acid], the pIC50 is not below 6.00.
Regarding `Nc1ccc(-n2cc(C(=O)O)c(=O)c3cc(Br)c(N4CCC[C@@H]4COc4ncccc4Cl)cc32)cn1` [Example 509, 1-(6-aminopyridin-3-yl)-6-bromo-7-[(2R)-2-{[(3-chloropyridin-2-yl)oxy]methyl}pyrrolidin-1-yl]-4-oxo-1,4-dihydroquinoline-3-carboxylic acid], the pIC50 is not below 6.00.
Regarding `CN(C)C1CN(c2ccc(-n3cc(C(=O)O)c(=O)c4cc(F)c(N5CCC[C@@H]5COc5ncccc5Cl)cc43)cn2)C1` [Example 510, (R)-7-(2-(((3-chloropyridin-2-yl)oxy)methyl)pyrrolidin-1-yl)-1-(6-(3-(dimethylamino)azetidin-1-yl)pyridin-3-yl)-6-fluoro-4-oxo-1,4-dihydroquinoline-3-carboxylic acid], the pIC50 is not below 6.00.
As to `O=C(O)c1cn(-c2cnccn2)c2cc(N3CCC[C@@H]3COc3ncccc3Cl)c(Br)cc2c1=O` [Example 511, (R)-6-bromo-7-(2-(((3-chloropyridin-2-yl)oxy)methyl)pyrrolidin-1-yl)-4-oxo-1-(pyrazin-2-yl)-1,4-dihydroquinoline-3-carboxylic acid], the pIC50 is not below 6.00.
For `COc1cc2c(=O)c(C(=O)O)cn(-c3cnccn3)c2cc1N1CCC[C@@H]1COc1ncccc1Cl` [Example 512, (R)-7-(2-(((3-chloropyridin-2-yl)oxy)methyl)pyrrolidin-1-yl)-6-methoxy-4-oxo-1-(pyrazin-2-yl)-1,4-dihydroquinoline-3-carboxylic acid], the negative logarithm of the IC50 (pIC50) was less than 4.30.
With `N#Cc1cc2c(=O)c(C(=O)O)cn(-c3ccc(N)nc3)c2cc1N1CCC[C@@H]1COc1ncccc1Cl` [Example 513, (R)-1-(6-aminopyridin-3-yl)-7-(2-(((3-chloropyridin-2-yl)oxy)methyl)pyrrolidin-1-yl)-6-cyano-4-oxo-1,4-dihydroquinoline-3-carboxylic acid] the figure was not below 6.00; with `O=C(O)c1cn(-c2cnn3c2CNCC3)c2cc(N3CCC[C@@H]3COc3ncccc3Cl)c(Cl)cc2c1=O` [Example 514, (R)-6-chloro-7-(2-(((3-chloropyridin-2-yl)oxy)methyl)pyrrolidin-1-yl)-4-oxo-1-(4,5,6,7-tetrahydropyrazolo [1,5-a]pyrazin-3-yl)-1,4-dihydroquinoline-3-carboxylic acid], not below 6.00.
As for `O=C(O)c1cn(-c2cc3n(n2)CCNC3)c2cc(N3CCC[C@@H]3COc3ncccc3Cl)c(Cl)cc2c1=O` [Example 515, (R)-6-chloro-7-(2-(((3-chloropyridin-2-yl)oxy)methyl)pyrrolidin-1-yl)-4-oxo-1-(4,5,6,7-tetrahydropyrazolo [1,5-a]pyrazin-2-yl)-1,4-dihydroquinoline-3-carboxylic acid], the pIC50 is not below 6.00.
